Legend:
[1] = Dynamic vapour sorption (DVS) assessment; assay type: physicochemical
Method: The ability of samples studied to absorb moisture (or not) over a set of well-determined humidity ranges was assessed.
Sorption isotherms were obtained using a Hiden Isochema moisture sorption analyser (model IGAsorp), controlled by IGAsorp Systems Software V6.50.48. The sample was maintained at a constant temperature (25° C.) by the instrument controls. The humidity was controlled by mixing streams of dry and wet nitrogen, with a total flow of 250 ml·min^−1. The instrument was verified for relative humidity content by measuring three calibrated Rotronic salt solutions (10-50-88%). The weight change of the sample was monitored as a function of humidity by a microbalance (accuracy+/−0.005 mg). A defined amount of sample (typically 10-15 mg powder) was placed in a tared mesh stainless steel basket under ambient conditions. A full experimental cycle typically consisted of three scans (desorption, sorption, and desorption) at a constant temperature (25° C.) and 10% RH intervals over a 0-90% range (60 minutes for each humidity level).
Solids are then held post cycle at 0% RH for 2-3 hours and tested by XRPD and the remainder held at 90% RH for 2-3 hours and re-tested by XRPD.

[2] = Solubility of the diphosphate salt in a range of dissolution media; assay type: physicochemical
Method: The pH of the aqueous mixtures were also measured.

[3] = Stability assessment after storage at 40° C. and 75% RH for 3 weeks; assay type: physicochemical
Method: FIG. 3 compares the XRPD of the diphosphate salt (Form A) before (bottom) and after (top) storage at 40° C. and 75% RH.

[4] = Solubility of the diphosphate salt in a range of dissolution media; assay type: physicochemical; settings: thermodynamic from solid, 37° C., minimum of 21 hours
MPS1 kinase = biological target: T1, MPS1 kinase (Homo sapiens, UniProt P33981); settings: cited from earlier work
T1 sequence (P33981 1-857): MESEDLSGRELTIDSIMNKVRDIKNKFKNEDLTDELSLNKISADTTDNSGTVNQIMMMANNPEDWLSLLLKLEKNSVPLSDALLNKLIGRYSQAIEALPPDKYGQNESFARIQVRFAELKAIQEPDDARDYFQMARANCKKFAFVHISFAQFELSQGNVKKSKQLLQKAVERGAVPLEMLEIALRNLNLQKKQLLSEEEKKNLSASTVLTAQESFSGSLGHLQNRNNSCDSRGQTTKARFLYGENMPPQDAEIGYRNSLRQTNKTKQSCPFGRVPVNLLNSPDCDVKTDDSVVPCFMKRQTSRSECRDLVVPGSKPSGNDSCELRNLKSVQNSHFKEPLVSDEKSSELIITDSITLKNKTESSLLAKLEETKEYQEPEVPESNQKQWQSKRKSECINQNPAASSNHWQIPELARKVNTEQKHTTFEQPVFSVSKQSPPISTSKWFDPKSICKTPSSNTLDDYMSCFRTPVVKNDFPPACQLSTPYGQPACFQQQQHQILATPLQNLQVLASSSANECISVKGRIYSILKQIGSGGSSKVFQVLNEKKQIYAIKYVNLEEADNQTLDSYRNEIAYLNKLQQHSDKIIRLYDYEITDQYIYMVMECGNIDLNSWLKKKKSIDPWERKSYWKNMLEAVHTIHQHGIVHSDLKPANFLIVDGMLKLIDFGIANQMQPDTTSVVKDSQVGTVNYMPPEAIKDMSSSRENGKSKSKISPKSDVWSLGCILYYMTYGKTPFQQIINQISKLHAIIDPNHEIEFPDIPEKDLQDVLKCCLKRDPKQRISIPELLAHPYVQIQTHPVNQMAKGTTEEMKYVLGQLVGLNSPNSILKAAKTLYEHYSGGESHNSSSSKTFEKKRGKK

In the case of CCOc1cc(-c2nncn2C)ccc1Nc1ncc2cc(C)nc(NCC(C)(C)C)c2n1 [N2-(2-ethoxy-4-(4-methyl-4H-1,2,4-triazol-3-yl)phenyl)-6-methyl-N8-neopentylpyrido[3,4-d]pyrimidine-2,8-diamine], the “DVS profile (reversibility, hysteresis)” value ([1]; 0-90% RH, 25° C., FIG. 4) is reported as “reversible water uptake over the humidity range and no hysteresis”, the Water uptake/loss ([1]; DVS, 0 to 90% RH, 25° C.) is reported as 4.03% and the “Water uptake/loss as equivalents of water” value ([1]; DVS, 0 to 90% RH, 25° C.) is reported as “about 1.5 equivalents of water”. For the same compound, the “Flow of the solid post DVS” value ([1]; post DVS and exposure to 90% RH) was “free flowing”, the “Form change post DVS (XRPD)” value ([1]; post DVS at 0% RH and at 90% RH, FIG. 5) was “no evidence of form change” and the “pH of the aqueous mixture” value ([2]; Acetate buffer, pH 4.5) was 4.25. For the same compound, the “pH of the aqueous mixture” value ([2]; FaSSIF, pH 6.5) was 2.07, the “pH of the aqueous mixture” value ([2]; FeSSIF, pH 5) was 2.36 and the “pH of the aqueous mixture” value ([2]; NaCl,0.9%/DMSO/Tween 20) was 2.13. The “pH of the aqueous mixture” value ([2]; Phosphate buffer, pH 6.7) was 2.38, the “pH of the aqueous mixture” value ([2]; SFaGF, pH 1.6) was 1.72 and the “pH of the aqueous mixture” value ([2]; Sodium chloride 0.9% w/v) was 1.88. For the same compound, the “pH of the aqueous mixture” value ([2]; Water, deionised) was 1.91, the “Chemical degradation after storage” value [3] was “no evidence of chemical degradation” and the Hydration after storage [3] was “no evidence”. For the same compound, the “Form modification after storage (XRPD)” value ([3]; FIG. 3) was “No evidence of form modification”, the “Change in appearance after storage” value ([3]; loose screw top vials) was “No change in appearance” and the solubility ([4]; aqueous buffer, Acetate buffer, pH 4.5) was 0.02 mg/mL. For the same compound, the solubility ([4]; aqueous buffer, Phosphate buffer, pH 6.7) was 30 mg/mL, the solubility ([4]; aqueous with cosolvent or surfactant or cyclodextrin, NaCl,0.9%/DMSO/Tween 20) was 30.2 mg/mL and the solubility ([4]; fassgf or other biorelevant, SFaGF, pH 1.6) was 30.5 mg/mL. For the same compound, the solubility ([4]; organic solvent or mixture, PEG300) was 4.17 mg/mL, the solubility ([4]; saline or isotonic, Sodium chloride 0.9% w/v) was 30.5 mg/mL and the solubility ([4]; FaSSIF, pH 6.5) was 29.7 mg/mL. For the same compound, the solubility ([4]; FeSSIF, pH 5) was 10.9 mg/mL and the solubility ([4]; Water, deionised) was 30.2 mg/mL.
For CCOc1cc(-c2nncn2C)ccc1Nc1ncc2cc(C)nc(NCC(C)(C)C)c2n1 [compound I, N2-(2-ethoxy-4-(4-methyl-4H-1,2,4-triazol-3-yl)phenyl)-6-methyl-N8-neopentylpyrido[3,4-d]pyrimidine-2,8-diamine], the “MPS1 kinase inhibitory activity” value (MPS1 kinase) is listed as “potent”.

— US11945814B2, “Salt form” (CRT Pioneer Fund LP, priority 2018, dated 2024)
